Key:
Cyclic GMP-AMP synthase [1] = target: T1, Cyclic GMP-AMP synthase (Homo sapiens, UniProt Q8N884); assay: Inhibition of CGAS in human THP1 cells transfected with interferon stimulatory DNA and measured after 16 hrs by Gaussia luciferase reporter gene assay; type: cell-based
Cyclic GMP-AMP synthase [2] = target: T1, Cyclic GMP-AMP synthase; assay: Inhibition of CGAS in human THP1 cells transfected with mock Sendai virus and measured after 16 hrs by Gaussia luciferase reporter gene assay; type: cell-based
Cyclic GMP-AMP synthase [3] = target: T1, Cyclic GMP-AMP synthase; assay: Inhibition of recombinant His6-SUMO tagged human CGAS expressed in Escherichia coli BL21/pLys cells incubated for 20 mins by Kinase Glo chemiluminescence assay

T1 sequence (Q8N884 whole entry): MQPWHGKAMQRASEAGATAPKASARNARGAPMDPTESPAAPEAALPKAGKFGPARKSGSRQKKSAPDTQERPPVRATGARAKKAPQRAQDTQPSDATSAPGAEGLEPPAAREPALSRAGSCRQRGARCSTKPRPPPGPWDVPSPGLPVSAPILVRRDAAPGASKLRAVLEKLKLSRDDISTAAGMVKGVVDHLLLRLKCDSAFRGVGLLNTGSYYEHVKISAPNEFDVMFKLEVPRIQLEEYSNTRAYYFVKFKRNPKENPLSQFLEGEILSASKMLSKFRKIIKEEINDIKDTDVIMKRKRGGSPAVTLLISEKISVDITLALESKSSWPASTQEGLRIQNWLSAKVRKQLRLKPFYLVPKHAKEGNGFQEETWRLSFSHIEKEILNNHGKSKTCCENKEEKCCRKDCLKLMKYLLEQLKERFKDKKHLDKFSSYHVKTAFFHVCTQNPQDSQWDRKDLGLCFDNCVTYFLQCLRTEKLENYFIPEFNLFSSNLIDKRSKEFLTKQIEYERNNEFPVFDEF

Row | IC50 (Cyclic GMP-AMP synthase [1]) [µM] | IC50 (Cyclic GMP-AMP synthase [2]) [µM] | IC50 (Cyclic GMP-AMP synthase [3]) [µM] | SMILES
1 | ≤ 2.5 | ≥ 10 | ≤ 0.5 | CN1C(=O)S/C(=C\c2cc(OCc3cnc(NN)nc3)c(O)cc2Br)C1=O
2 | ≤ 2.5 | ≥ 10 | ≤ 0.5 | Nc1ncc(COc2cc(/C=C3\Sc4ncccc4C3=O)c(Br)cc2O)cn1
3 | 2.5 to 10 | ≥ 10 | ≤ 0.5 | O=C1/C(=C/c2cc(OCc3cnc(NCc4cccnc4)nc3)c(O)c(F)c2Br)Sc2ncccc21
4 | ≤ 2.5 | ≥ 10 | ≤ 0.5 | CN1C(=O)S/C(=C\c2cc(O/C=C/c3cnc(N)nc3)c(O)c(F)c2Br)C1=O
5 | 2.5 to 10 | 2.5 to 10 | ≤ 0.5 | CC1C(=O)S/C(=C\c2cc(OC(C)c3cnc(Cl)nc3)c(O)c(F)c2Br)C1=O (stereo unspecified)
6 | 2.5 to 10 | ≥ 10 | ≤ 0.5 | O=C1/C(=C/c2cc(OCc3cncnc3)c(O)cc2Br)Sc2ncccc21
7 | ≤ 2.5 | ≥ 10 | ≤ 0.5 | O=C1/C(=C/c2cc(OCc3cnc(NCc4ccncc4)nc3)c(O)cc2Br)Sc2ncccc21
8 | 2.5 to 10 | ≥ 10 | ≤ 0.5 | CNc1ncc(COc2cc(/C=C3\Sc4ncccc4C3=O)c(Br)cc2O)cn1
9 | ≤ 2.5 | ≥ 10 | ≤ 0.5 | Cc1nc(N)ncc1COc1cc(/C=C2\SC(=O)N(C)C2=O)c(Br)cc1O
10 | 2.5 to 10 | ≥ 10 | ≤ 0.5 | CNc1ncc(COc2cc(/C=C3\Sc4ncccc4C3=O)c(Br)c(F)c2O)cn1
11 | 2.5 to 10 | ≥ 10 | ≤ 0.5 | CC1C(=O)S/C(=C\c2cc(OC(C)c3cnc(N)nc3C(F)(F)F)c(O)c(F)c2Br)C1=O (stereo unspecified)
12 | 2.5 to 10 | ≥ 10 | ≤ 0.5 | O=C1/C(=C/c2cc(CC(F)(F)F)c(O)cc2Br)Sc2ncccc21
13 | ≤ 2.5 | ≥ 10 | ≤ 0.5 | Cc1ncc(COc2cc(/C=C3\Sc4ncccc4C3=O)c(Br)c(F)c2O)cn1
14 | ≥ 10 | ≥ 10 | ≤ 0.5 | O=C1/C(=C/c2cc(OCc3cnc(NCc4ccccn4)nc3)c(O)c(F)c2Br)Sc2ncccc21
15 | ≥ 10 | ≥ 10 | ≤ 0.5 | CC(Oc1cc(/C=C2\SC(=O)N(C)C2=O)c(Br)c(F)c1O)C(O)c1cnc(N)nc1 (stereo unspecified)
16 | ≤ 2.5 | ≥ 10 | ≤ 0.5 | O=C1/C(=C/c2cc(OCc3cnc(NCCO)nc3)c(O)cc2Br)Sc2ncccc21
17 | 2.5 to 10 | ≥ 10 | ≤ 0.5 | COCCNc1ncc(COc2cc(/C=C3\Sc4ncccc4C3=O)c(Br)cc2O)cn1
18 | ≤ 2.5 | 2.5 to 10 | ≤ 0.5 | C[S+]([O-])c1ncc(COc2cc(/C=C3\Sc4ncccc4C3=O)c(Br)cc2O)cn1 (stereo unspecified)
19 | ≤ 2.5 | ≥ 10 | ≤ 0.5 | CN1C(=O)S/C(=C\c2cc(OCc3cnc(NCCO)nc3)c(O)c(F)c2Br)C1=O
20 | ≥ 10 | ≥ 10 | ≤ 0.5 | CN1C(=O)S/C(=C\c2cc3c(Cc4cnc(N)nc4)c[nH]c3c(F)c2Br)C1=O
21 | ≤ 2.5 | ≥ 10 | ≤ 0.5 | [2H]C([2H])(Oc1cc(/C=C2\SC(=O)N(C)C2=O)c(Br)cc1O)c1cnc(N)nc1
22 | ≤ 2.5 | ≥ 10 | ≤ 0.5 | CN1C(=O)S/C(=C\c2cc(OCCc3cnc(N)nc3)c(O)c(F)c2Br)C1=O
23 | 2.5 to 10 | ≥ 10 | 0.5 to 10 | C[S+]([O-])c1ncc(COc2cc(/C=C3\Sc4ncccc4C3=O)c(Br)c(F)c2O)cn1 (stereo unspecified)

Row | SMILES | IC50 (Cyclic GMP-AMP synthase [1]) [µM] | IC50 (Cyclic GMP-AMP synthase [2]) [µM] | IC50 (Cyclic GMP-AMP synthase [3]) [µM]
24 | CN1C(=O)S/C(=C\c2cc(OCc3cnc(NCc4ccccn4)nc3)c(O)cc2Br)C1=O | 2.5 to 10 | ≥ 10 | ≤ 0.5
25 | CN1C(=O)S/C(=C\c2cc(OCc3cn(-c4ccncc4)nn3)c(O)cc2Br)C1=O | 2.5 to 10 | ≥ 10 | ≥ 10
26 | CN1C(=O)S/C(=C\c2cc(OCc3cnc([S+](C)[O-])nc3)c(O)cc2Br)C1=O (stereo unspecified) | 2.5 to 10 | ≥ 10 | ≤ 0.5
27 | CN1C(=O)S/C(=C\c2cc(OCc3cnc(NCc4cccnc4)nc3)c(O)cc2Br)C1=O | 2.5 to 10 | ≥ 10 | ≤ 0.5
28 | CN1C(=O)S/C(=C\c2cc(OCc3cnc(NC4CC4)nc3)c(O)cc2Br)C1=O | ≤ 2.5 | ≥ 10 | 0.5 to 10
29 | COCCNc1ncc(COc2cc(/C=C3\SC(=O)N(C)C3=O)c(Br)c(F)c2O)cn1 | 2.5 to 10 | ≥ 10 | ≤ 0.5
30 | CN1C(=O)S/C(=C\c2cc(OCc3cnc4ccccc4c3)c(O)cc2Br)C1=O | 2.5 to 10 | ≥ 10 | ≥ 10
31 | CN1C(=O)S/C(=C\c2cc(Oc3ccc(N)nc3)c(O)cc2Br)C1=O | 2.5 to 10 | ≥ 10 | ≥ 10
32 | CN1C(=O)S/C(=C\c2cc3c(-c4cnc(N)nc4)c[nH]c3c(F)c2Br)C1=O | 2.5 to 10 | ≥ 10 | ≤ 0.5
33 | CN1C(=O)S/C(=C\c2cc(OCc3cnc(N)nc3)c(Oc3cnc(N)s3)cc2Br)C1=O | 2.5 to 10 | ≥ 10 | 0.5 to 10
34 | CCC(Oc1cc(/C=C2\SC(=O)N(C)C2=O)c(Br)c(F)c1O)c1cnc(N)nc1 (stereo unspecified) | 2.5 to 10 | ≥ 10 | ≤ 0.5
35 | CN1C(=O)S/C(=C\c2cc(OCc3cnc(NCc4ccncc4)nc3)c(O)cc2Br)C1=O | 2.5 to 10 | ≥ 10 | ≤ 0.5
36 | CN1C(=O)S/C(=C\c2cc(OCc3cnc(N)nc3C3CC3)c(O)cc2Br)C1=O | 2.5 to 10 | ≥ 10 | ≤ 0.5
37 | CN1C(=O)S/C(=C\c2cc(OCc3cnc(N4CCNCC4)nc3)c(O)cc2Br)C1=O | 2.5 to 10 | ≥ 10 | ≤ 0.5
